The source of these data is patent publication EP4644375A1, “SUBSTITUTED HYDROQUINOLINES FOR THE TREATMENT OF GLIOBLASTOMA MULTIFORME” (Molius Saglik Teknolojileri Anonim Sirketi, priority 2024, dated 2025).

Entries after “also recorded” stand apart in the source; their conditions may differ.

Data set [1] in a line: Peripheral blood micronucleus assay. Format: in vivo, Rat. As to conditions: GBM rats, 30 mg/kg oral, 5 days, 1000 cells per animal evaluated. As to the method:
Blood smears were made on clean microscope slides, allowed to air-dry, treated with methanol for fixation, and then stained with Giemsa (10% in 0.1 mM of sodium phosphate buffer, pH 6.8) for 10 min. After washing with PBS, the slides were examined under a light microscope. The frequencies of micronuclei (MN) were calculated by evaluating 1000 cells per animal.

Data set [2] in a line: In vivo GBM rat model: haematology. As to conditions: GBM rats, 30 mg/kg oral, 5 days, blood at necropsy. As to the method: The parameters that were analysed can be seen in Table 11.
Data set [3] has as its system GBM xenograft rat model. Nature of the data set: In vivo GBM rat model: survival. The following applies: GBM rats, 30 mg/kg oral gavage once daily for 5 days, 14th to 28th day, compared to untreated GBM rats; 30 mg/kg. The protocol:
(§1) An in Vivo study was performed to assess the therapeutic potential of TR-G002, TR-G045, TR-G053, TR-G066, TR-G071 and TR-G091 in the GBM xenograft rat model when administered orally by gavage for five consecutive days. 152 female rats of the Sprague Dawley strain were allocated to the study. Six groups of sixteen females were given dose of 30 mg/kg of the respective target compounds. […] The study design can be seen in Fig. 11 and Table 10.
(§2) Female Sprague Dawley rats (age: 6-8 weeks; weight: 255-310 g; ATADEM, Erzurum, Turkey) were utilized in the study. Rats underwent anaesthesia with 5% isoflurane, maintained at 2% isoflurane (1 L/min oxygen), and were positioned in a stereotactic frame for cell implantation (Stoelting Co., IL). […] A burr hole was drilled 1-mm anterior and 3-mm lateral to the right bregma. A microsyringe (Hamilton 1700 series) containing 5×10^4 U87-MG cells suspended in 5 µL of medium at 37 °C was advanced to a depth of 4 mm into the brain. The cells were injected at a rate of 3 µL/ min. Bone wax was used to fill the burr hole to prevent cell suspension reflux. The incision was sutured, and 1 mL of Meloxicam (5 mg/mL; Metacam, Boehringer Ingelheim Vetmedica, Ingelheim, Germany) was administered via a subcutaneous injection.
(§3) Fourteen days after inoculation, tumor development in rats was visualized and confirmed through magnetic resonance imaging (MRI). Rats confirmed to have developed tumors were then distributed into six different groups for treatment. […] 9 days after the final treatment dose, the rats underwent another MRI scan and blood and brain samples were taken under anaesthesia.

Data set [4] has as its system NOP10. Nature of the data set: In vivo GBM rat model: double immunofluorescence examination. The following applies: neurons, brain tissues, GBM rats, 30 mg/kg oral, 5 days. As to the method:
(§4) In immunofluorescence examinations, primary antibody (NOP10 Cat no: ab134902 dilution ratio: 1/100) was applied to tissues and incubated according to the instructions. A fluorescent secondary antibody (FITC Cat No: ab6785 dilution Ratio: 1/1000 UK) was then applied and incubated in the dark for 45 minutes. Afterward, a second primary antibody (H2A.X Cat no: sc-517336 dilution ratio: 1/100) was applied and incubated according to the instructions. A different fluorescent secondary antibody (Texas Red Cat No: ab6719 dilution Ratio: 1/1000 UK) was applied and incubated in the dark for 45 minutes. Finally, DAPI (Cat no: D1306 dilution ratio: 1/200 UK) was applied to the sections for 5 minutes in the dark, followed by covering the tissues with coverslips. The stained tissues were examined under a fluorescence attachment-equipped microscope (Zeiss AXIO, Germany).
(§5) Individual body weights were manually calculated. Group mean body weights; group mean body weight changes and organ weights were also manually calculated without statistical analysis. To determine the density of positive staining from immunohistochemical and immunofluorescence staining images, five randomly selected areas were evaluated using ZEISS Zen Imaging Software. Data were statistically defined as mean and standard deviation (mean ± SD) for the percentage of the area. One-way ANOVA followed by the Tukey test was performed to compare immunoreactive cells and immune-positive stained areas with healthy controls. GraphPad Prism software was used for analysis.

Data set [5] has as its system H2A.X. The data set is described as above. As to conditions: neurons, brain tissues, GBM rats, 30 mg/kg oral, 5 days. As to the method: as §4, §5
The subject of data set [6] is Ki67. The experiment in a line: In vivo GBM rat model: immunohistochemical examination. As to conditions: tumor cells, brain tissues, GBM rats, 30 mg/kg oral, 5 days.
Excerpt: (§6) For immunohistochemical examinations, primary antibodies (Ki67 Cat no: ab15580 dilution ratio: 1/100; CMPK2 Cat no: PA5-34461, dilution ratio: 1/100, GFAP Cat no: ab6842 dilution ratio: 1/100) were used. 3-3' Diaminobenzidine (DAB) was used as chromogen. Mayer's hematoxylin was used for counterstaining. Sections were examined under a light microscope (Zeiss AXIO, Germany).
as §5

Data set [7] deals with CMPK2. The data set is described as above. As to conditions: tumor cells, brain tissues, GBM rats, 30 mg/kg oral, 5 days.
Excerpt: as §6, §5

For data set [8], the system named is GFAP. The description is as above. The following applies: brain tissues, GBM rats, 30 mg/kg oral, 5 days.
Excerpt: as §6, §5

The test system of data set [9] is GBM xenograft rat model. The experiment in a line: In vivo GBM rat model: MRI analysis of tumor volumes. The following applies: GBM rats, 30 mg/kg oral, 5 days. The protocol:
as §1, §2, §3
The anaesthetic was administered via an intraperitoneal route on animals fixed in the supine position with parallel hind limbs. MRI was performed using a 3 Tesla clinical scanner (Magnetom Skyra; Siemens Healthineers, Erlangen, Germany). Rats were placed in the prone position. T2-SPACE (sampling perfection with application-optimized contrast using different flip angle Evolution) sequence was obtained to view the brain in coronal and transverse planes. (TR: 6000 ms, TE: 100 ms, voxel size: 0.5 × 0.5 × 1 mm, 34 slices, slice thickness: 2 mm, slice spacing: 0.6 mm). The volume measurements of brain tumors were performed manually. One radiologist calculated the tumour volume - manually measuring tumour length (L), width (W), and height (H) - and then calculated the tumour volume using the formula 0.5236 × L × W × H (Stuppner S et al., 2020).

`O=C(COc1ccc2c(c1)CCC(=O)N2)N/N=C/c1cnc(-c2ccc(Cl)cc2)nc1` [TR-G066, (E)-N'-((2-(4-chlorophenyl)pyrimidin-5-yl)methylene)-2-((2-oxo-1,2,3,4-tetrahydroquinolin-6-yl)oxy)acetohydrazide] registered an MN frequency in [1] of 10.91 ± 1.89. Moreover, in data set [2], the HCT stood at 46.30%, the HGB worked out at 15.00 g/dL, the MCH stood at 18.51 pg and the MCHC is given as 31.11 g/dL. Besides, in data set [2], the MCV is recorded as 59.60 fL, the PLT is recorded as 799.14 10^9 /L, the RBC is 8.12 10^12/L and the WBC is reported as 4.57 10^9/L. Besides, the survival entry in data set [3] was “significantly improved survival; also recorded: highest survival; also recorded: prolonged survival”. The “expressions of Nopio” value in data set [4] is recorded as “very mild”. The “expressions of H2AX” value in [5] is “very mild”. In data set [6], the “expression of Ki67” value is given as “very mild”. In addition, the “expression of CMPK2” value in [7] is “very mild”. The “GFAP expression in astrocytes around the tumor” value in data set [8] is recorded as “very severe”. Moreover, in data set [9] (MRI 14th vs 28th day, 30 mg/kg), the tumor size result is on record as “decrease in tumor size; also recorded: reduced the tumor size”. Besides, the “antitumor activities, order” value in [9] (ranking) is recorded as “TR-G066> TR-G045> TR-G002>TMZ> TR-G091> TR-G053> TR-G071”.
